# Assay results as given in paper PMC7768756, “BAM1/2 receptor kinase signaling drives CLE peptide-mediated formative cell divisions in Arabidopsis roots” (Proceedings of the National Academy of Sciences of the …, 2020).
# Where two headings read alike, the source gives them in different places. Non-standard residues stand in square brackets, D forms with d. Residues, ends and D or L forms follow the SMILES beside them. No end group written: not given here. Hyp = O=C(O)[C@@H]1C[C@@H](O)CN1
# T1: BAM1 extracellular domain (Arabidopsis thaliana, UniProt O49545)
# T1 construct: Drosophila BiP secretion signal peptide (N); StrepII (C, cleaved yes); 10xHis (C, cleaved yes); made in house; host or cells: Trichoplusia ni (strain Tnao38) insect cells, baculovirus (modified pFastBac)
# T1 sequence (O49545 20-637): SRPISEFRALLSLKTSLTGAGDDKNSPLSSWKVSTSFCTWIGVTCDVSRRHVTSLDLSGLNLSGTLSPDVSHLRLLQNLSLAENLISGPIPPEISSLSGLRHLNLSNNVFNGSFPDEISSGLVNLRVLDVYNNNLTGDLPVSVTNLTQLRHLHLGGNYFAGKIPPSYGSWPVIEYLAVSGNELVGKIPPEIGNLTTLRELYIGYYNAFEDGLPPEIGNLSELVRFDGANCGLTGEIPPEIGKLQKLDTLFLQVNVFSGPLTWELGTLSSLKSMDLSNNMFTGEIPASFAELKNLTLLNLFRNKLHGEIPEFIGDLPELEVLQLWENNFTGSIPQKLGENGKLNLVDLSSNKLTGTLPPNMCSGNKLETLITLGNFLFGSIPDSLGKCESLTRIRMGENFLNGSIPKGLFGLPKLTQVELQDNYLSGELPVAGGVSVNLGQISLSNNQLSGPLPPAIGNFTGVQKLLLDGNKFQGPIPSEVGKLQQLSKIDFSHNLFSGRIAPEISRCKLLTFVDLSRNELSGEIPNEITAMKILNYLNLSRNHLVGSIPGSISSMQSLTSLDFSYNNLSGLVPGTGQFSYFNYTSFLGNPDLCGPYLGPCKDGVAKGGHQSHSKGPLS
# T2: BAM1 extracellular domain (BARELY ANY MERISTEM1 receptor kinase, residues 20 to 637) (Arabidopsis, UniProt O49545 20-637, biotin (by biotin ligase BirA))
# T2 construct: synthetic gene, codon-optimised for Trichoplusia ni; Expressed behind the Drosophila BiP secretion signal peptide in a modified pFastBac vector; the StrepII and 10x His tags were removed with TEV protease, the Avi-tag is not cleavable and was used to capture the protein on streptavidin; also called BAM1 ectodomain; biotinylated BAM1; source: Trichoplusia ni (strain Tnao38) cells, secreted, …
# T2 sequence (looked up): T1 sequence (O49545 20-637)
# T3: BAM1 extracellular domain (BARELY ANY MERISTEM1 receptor kinase, residues 20 to 637) (Arabidopsis, UniProt O49545 20-637, biotin (by biotin ligase BirA))
# T3 chain: T1 sequence (O49545 20-637)
# B1: CLE16 dodecapeptide (CLE16p) (peptide, UniProt Q8S8M2 92-103, looked up)
# peptide: RLVHTGPNPLHN
# modifications: ends and bridges not checked
# notes: CLE16p, the active dodecapeptide released from the CLE16 propeptide, Arabidopsis; source: synthetic peptide (>90% purity, Biomatik)
# B2: CLE13 dodecapeptide (CLE13p) (peptide, UniProt Q6NMF0 96-107, looked up)
# peptide: RLVPSGPNPLHH
# modifications: ends and bridges not checked
# notes: CLE13p, the active dodecapeptide released from the CLE13 propeptide, Arabidopsis; source: synthetic peptide (>90% purity, Biomatik)
# How the values were obtained:
# CYCD6;1 expression = test: CYCLIND6;1p::GFP reporter expression in roots after exogenous CLE peptide treatment; assay type: in vivo, Arabidopsis; conditions: Col-0 roots; 0.1 μM CLEp for 48 h from 3 dag, imaged 5 dag
# Description: Seeds were surface sterilized with 70% ethanol and 0.1% Triton X-100 for 10 min, rinsed three times with 70% ethanol, and plated onto 0.5× Murashige and Skoog (MS) (pH 5.7) (Research Products International) with 8 g/L Phytoagar (Research Products International) and stratified at 4 °C for 2 d. Following stratification, seeds were germinated in a continuous light growth chamber at 22 °C to 24 °C. For peptide-treated plants, sterilized seeds were stratified and germinated on 0.5× MS plates. At 3 d after germination (dag), seedlings were transferred to either 0.5× MS plates or 0.5× MS plates supplemented with 0.1 μM CLEp for 48 h. Roots were imaged 5 dag as described in the figure legends. All synthetic peptides (>90% purity, Biomatik) (SI Appendix, Table S1) were dissolved in sterile dH2O as recommended. For treatment with dexamethasone (Dex; Sigma), seedlings were stratified and germinated on 0.5× MS plates supplemented with 10 μM Dex for 3 d before imaging.
# Laser scanning confocal microscopy of roots was performed using either a C-Apochromat 40×/1.20 W Korr objective on a Zeiss laser scanning microscopy (LSM) 710 or an EC Plan-Neofluar 40×/1.30 oil differential interference contrast (DIC) M27 objective on a Zeiss LSM 880. Roots were examined by staining with 10 μM propidium iodide (PI) (Sigma-Aldrich). For images in Figs. 2B and 4 A and C and SI Appendix, Figs. S1D and S2B, seedlings were fixed in 4% paraformaldehyde in phosphate-buffered saline (PBS) for 45 min, rinsed in PBS, and cleared in ClearSee solution ([38]) overnight. Fixed seedlings were incubated in 0.2% Calcofluor white (Sigma-Aldrich) for 30 min and transferred to fresh ClearSee solution 2 to 24 h before imaging. Laser line excitations and emissions are as follows: Calcofluor white (405 nm; 410 to 551 nm), GFP (488 nm; 492 to 551 nm), YFP (514 nm; 519 to 564 nm), mCherry (561 nm; 566 to 606 nm), and PI (561 nm; 566 to 682 nm). Histological sectioning of Col-0 and bam1/2/3 roots 6 dag were prepared as previously described ([39]).
# [1] = biological target: T1, BAM1 extracellular domain; test: Grating-coupled interferometry (GCI) binding kinetics of CLE peptides versus the BAM1 ectodomain; conditions: for koff: pH 5, read-out: koff, dissociation rate constant; for kon: pH 5, read-out: kon, association rate constant
# From the text: The coding sequence of BAM1 (residues 20 to 637) was synthesized (GeneArt) with codons optimized for expression in Trichoplusia ni and cloned in a modified pFastBac vector (Geneva Biotech), harboring the Drosophila BiP secretion signal peptide and a TEV (tobacco etch virus protease) cleavable C-terminal StrepII, 10× His tag and a noncleavable Avi-tag ([41], [42]). T. ni (strain Tnao38) ([43]) cells were infected with a multiplicity of infection (MOI) of 1 at a density of 2 × 10^6 cells mL^−1 and incubated 26 h at 28 °C and 48 h at 22 °C. The secreted protein was purified from the supernatant by Ni^2+ (HisTrap Excel; GE Healthcare; equilibrated in 50 mM KPi pH 7.6, 250 mM NaCl, 1 mM 2-mercaptoethanol) and StrepII (Strep-Tactin XT Superflow high affinity chromatography: IBA; equilibrated in 20 mM Tris pH 8.0, 250 mM NaCl, 1 mM ethylenediaminetetraacetic acid) affinity chromatography. The tag was cleaved with His-tagged TEV protease at 4 °C overnight and removed by Ni^2+ affinity chromatography. Proteins were then further purified by size-exclusion chromatography on a Superdex 200 increase 10/300 GL column (GE Healthcare), equilibrated in 20 mM sodium citrate pH 5.0, 250 mM NaCl.
# BAM1 protein (20 µM) was biotinylated with biotin ligase BirA (2 µM) ([42]) for 1 h at 25 °C, in a volume of 200 µL; 25 mM Tris pH 8, 150 mM NaCl, 5 mM MgCl2, 2 mM 2-mercaptoethanol, 0.15 mM biotin, 2 mM ATP, and followed by size-exclusion chromatography to purify the biotinylated protein.
# Grating-coupled interferometry (GCI) experiments were derived by the Creoptix WAVE system (Creoptix). All experiments were performed on 4PCP WAVE chips (quasiplanar polycarboxylate surface; Creoptix). Borate buffer (100 mM sodium borate pH 9.0, 1 M NaCl; Xantec) was used for chip conditioning and streptavidin (Sigma) was immobilized on the chip surface with standard amine coupling; 7 min activation [1:1 mix of 400 mM N-(3-dimethylaminopropyl)-N′-ethylcarbodiimide hydrochloride and 100 mM N-hydroxysuccinimide] (Xantec), followed by injection of streptavidin (30 µg mL^−1) in 10 mM sodium acetate pH 5.0 (Sigma) until the desired density was reached, passivation of the surface (0.5% bovine serum albumin [Roche] in 10 mM sodium acetate pH 5.0) and final quenching with 1 M ethanolamine pH 8.0 for 7 min (Xantec). Then, biotinylated BAM1 (80 µg mL^−1) was captured on the chip surface. All kinetic analyses were performed at 25 °C with a 1:2 dilution series from 100 nM for CLE9 or 10 µM for the other peptides in 20 mM citrate pH 5.0, 250 mM NaCl, 0.01% Tween 20. Blank injections were used for double referencing and a dimethyl sulfoxide (DMSO) calibration curve for bulk correction. Analysis and correction of the obtained data were performed using the Creoptix WAVE control software (correction applied: X and Y offset; DMSO calibration; double referencing). Mass transport binding models with bulk correction were used to fit all experiments.
# [2] = biological target: T2, BAM1 extracellular domain (BARELY ANY …); test: grating-coupled interferometry (GCI); biotinylated BAM1 captured on streptavidin on a 4PCP WAVE chip (Creoptix WAVE); peptides as analyte, 1:2 dilution series from 10 µM; 25 °C; 20 mM citrate pH 5.0, 250 mM NaCl, 0.01% Tween 20; one-to-one binding model with mass transport; conditions: both partners purified
# [3] = biological target: T3, BAM1 extracellular domain (BARELY ANY …)
Molecule,koff [1],kon [1],further results
"RLSPGGPDPQHH [CLE2p, synthesized root expressed CLE dodecapeptide, locus At4g18510]",,,Upregulation of CYCD6 observed? (CYCLIND6;1p::GFP response) (CYCD6;1 expression): No
RLVHTGPNPLHN [CLE16p],1.05 s⁻¹,1.51e+08 M⁻¹ s⁻¹,
"RRVPSGPNPLHH [CLE12p, synthesized root expressed CLE dodecapeptide, locus At1g68795]",,,Upregulation of CYCD6 observed? (CYCLIND6;1p::GFP response) (CYCD6;1 expression): Yes
RLVPSGPNPLHH [CLE13p],0.603 s⁻¹,5.88e+07 M⁻¹ s⁻¹,
"RLSPGGPDPRHH [CLE1p, synthesized root expressed CLE dodecapeptide, locus At1g73165]",,,Upregulation of CYCD6 observed? (CYCLIND6;1p::GFP response) (CYCD6;1 expression): No
"CC(C)C[C@H](NC(=O)[C@@H](N)CCCNC(=N)N)C(=O)N[C@H](C(=O)N1C[C@H](O)C[C@H]1C(=O)N[C@@H](CO)C(=O)NCC(=O)N1C[C@H](O)C[C@H]1C(=O)N[C@@H](CC(N)=O)C(=O)N1CCC[C@H]1C(=O)N[C@@H](CC(C)C)C(=O)N[C@@H](Cc1c[nH]cn1)C(=O)N[C@@H](CC(N)=O)C(=O)O)C(C)C [CLE9, reference compound] (H-RLV[Hyp]SG[Hyp]NPLHN-OH; N-terminus and C-terminus assumed)",0.024 s⁻¹,3.76e+07 M⁻¹ s⁻¹,
"RTVPSGPDPLHH [CLV3, reference compound]",0.549 s⁻¹,38200 M⁻¹ s⁻¹,
B1,,,Kd [2]: 6.9 nM
B2,,,Kd [2]: 10 nM
RTVPSGPDPLHH [CLV3],,,Kd [3]: 14000 nM
RLVPSGPNPLHN [CLE9],,,Kd [3]: 0.6 nM
